Our source for the melting point values is a melting point compilation (Tetko et al.; mined from patent text by program, amines drawn as free bases though some values may be those of a salt).

Molecules are shown by their SMILES.

As usually defined, the melting point is the temperature, or range, at which the solid turns liquid. Compound `COCOc1ccc(-c2ccc3c(c2)C(C)(C)CCC3(C)C)cc1-c1ccc(C(=O)O)cc1` displayed a melting point of 137 to 140 °C.
The same measure for `CS(=O)(=O)NCCn1c(=O)[nH]c2ccccc21`: 162 to 170 °C; for `CCOC(=O)C(c1ccc(Nc2nc(-c3cccc(NC(=O)c4ccc(C(C)(C)C)cc4)c3C)cn(C)c2=O)cc1)N(C)C(C)C` (stereo not given): 119 to 120 °C.
As for `CC(C)(C)OC(=O)NC(C(=O)O)C1(O)CCSC1` (stereo not given), the figure is 116 to 118 °C; as for `O=C(O)c1ccccc1-c1nnc(-c2cccc(C(F)(F)F)c2)o1`, 141 to 159 °C.
As for `CCc1nc2c(N)nc3ccccc3c2n1OC`, the figure is 216 to 217 °C.
`Cc1nccn1Cc1cnn(-c2ccc(Cl)c(Cl)c2)c1`: the melting point is 176 to 177 °C.
The same measure for `COc1ccc(Cn2nnc(-c3cccc(CO)c3)n2)cc1`: 70 to 72 °C; for `CCCCCCCC=CCCCCCCCCC(=O)OCC(O)COC(=O)CCCCCCCC=CCCCCCCCC` (stereo not given): 20 to 22 °C.
The same measure for `Cn1c(C(F)(F)F)cc(=O)n(-c2cc([N+](=O)[O-])c(C#N)cc2F)c1=O`: 155 to 157 °C; for `CSc1cc2n(c1C(=O)c1ccccc1)CCC2C(=O)O` (stereo not given): 191 to 192 °C.
As for `CN(C)CCCCC1CCCN(CCNC(=O)N2c3ccccc3C(=O)Nc3cccnc32)C1` (stereo not given), the figure is 119 to 120 °C; as for `CCCOC(=O)N=P(c1ccccc1)(c1ccccc1)c1ccccc1`, 90 to 91 °C.
`Cc1cc(C)c2c(c1)cc(C(=O)OCc1ccccc1)n2CC(=O)OC(C)(C)C` showed a melting point of 115 °C.
As for `O=C(Nc1ccccc1F)c1c[nH]c2c1C(=O)CCC2`, the figure is 238 to 240 °C; as for `CCn1cc(C(=O)NCCc2ccncc2)c(=O)c2cc(F)cc(C)c21`, 243 to 245 °C.
As for `O=S1(=O)NCN(C2CC2)c2c1ccc(F)c2Cl`, the figure is 141 to 143 °C.
As for `COC(=O)c1nc(-c2ccc(Cl)c(OC)c2F)nc(N)c1OC`, the figure is 155 to 158 °C; as for `O=C(Nc1ccc(C(=O)c2ccccc2)cc1)c1ccc(-c2ccccc2)cc1`, 212 to 213 °C.
In turn, `CCCCCCCCCCCCCCCCCCC(N)(CO)CO` gave a melting point of 76 to 80 °C.
As for `CCOC(=O)Nc1cc(C(=O)NC(C)C)c(Cl)cc1F`, the figure is 127 to 130 °C; as for `COc1ccc(C(O)C(CO)[N+](=O)[O-])cc1OC` (stereo not given), 134 to 138 °C; as for `Cc1c(C(=O)Nc2ccc(N3CCCCC3)c(C#N)c2)cnn1C`, 217 to 218 °C.
The same measure for `O=C(O)c1cc(S(=O)(=O)Oc2ccc(-c3ccc(-c4c(Cc5ccccc5)oc5ccccc45)cc3)cc2)ccc1O`: 171 to 173 °C; for `Nc1cc(Cl)c(Cl)cc1-n1cccc1`: 57 to 58 °C.
The same measure for `CN(CCOc1ccc(C=C2SC(=O)NC2=O)cc1)c1ccccn1`: 177 to 179 °C.
Regarding `CCCCCCCCCCCCCCc1ccc(CCCCCC)c(O)c1`, the melting point fell in the range of 43 to 45 °C.
The same measure for `CNC(=O)Nc1cc2c(c3c1OC(C)(C)C3)C(c1ccccc1)=NC(C)(C)C2`: 209 to 211 °C.
As for `Cc1ccnc2c1C(=O)CC(c1ccccc1Br)C2` (stereo not given), the figure is 106 to 107 °C; as for `c1ccc(C2=NC(c3ccccn3)(c3ccccn3)N=C2c2ccccc2)cc1`, 214 to 216 °C.
`CCC1c2cccn2-c2ccc(F)cc2N1S(=O)(=O)c1ccc(OC)c(Cl)c1` (stereo not given) registered a melting point of 152 to 154 °C.
`COc1cccc(-c2cccc3nc(Nc4cc(OC)c(OC)c(OC)c4)oc23)c1` came in with a melting point of 167 to 170 °C.
Consider `Cn1cccc1C1=CC(=O)c2ncccc2C1=O`, for which the melting point fell in the range of 167 to 168 °C.
As for `CC(C)N(C[C@H](O)[C@H](Cc1ccccc1)NC(=O)[C@H](CC(N)=O)NC(=O)c1ccccn1)NC(=O)OC(C)(C)C`, the figure is 101 to 108 °C; as for `BrCCCN(c1ccccc1)c1ccccc1`, 162 to 164 °C.
With `COC(OC)c1cnc(N2C(=O)c3ccccc3C2=O)c(C#N)n1`, the melting point is 115 to 116 °C.
The same measure for `CC(C#CC1CCC(Oc2ccc(F)cc2)C1)N(O)C(N)=O` (stereo not given): 95.6 to 96.7 °C.
The same measure for `O=[N+]([O-])c1cccnc1Nc1ccccc1`: 66 to 68 °C.
As for `CCCCCCCCCCCCOc1cc(C#N)c(C#N)cc1OCCOCCOCCOC`, the figure is 38 to 40 °C.
In the case of `COc1cc2c(cc1OC)CC(=O)N(CCCCl)C=C2`, the melting point was in the range of 84 to 85 °C.
The compound `CCOC(=O)c1c(-c2ccc(F)cc2)c2ccccc2n1C` registered a melting point of 61 to 62 °C.
For `Cc1cc(C(=O)NC2CC2)ccc1N1CCNCC1`, the melting point was 172 to 173 °C.
As for `COc1ccc(C(=O)Nc2ccccc2CC(C)C2CCCCN2C)cc1` (stereo not given), the figure is 126 to 136 °C; as for `O=C(c1cccs1)c1cnn2c(-c3cccc(-c4ccc(CNCCN5CCOCC5)cc4)c3)ccnc12`, 100 to 106 °C.
The same measure for `Cc1csc2c(CS(=O)c3nc4ccccc4[nH]3)nccc12` (stereo not given): 186 to 188 °C; for `CCn1c(C(O)(C2CCCCC2)C2CCCCC2)nc(-c2ccncc2)c1-c1ccc(Cl)cc1`: 221 to 224 °C.
As for `O=S1(=O)NC(c2cccc(F)c2)c2ccccc21` (single isomer, unassigned; (+)), the figure is 148 °C; as for `COC(=O)Nc1cn2cccc(Sc3ccccc3)c2n1`, 169 to 171 °C.
`COc1ccc2cc([C@H](C)C(=O)OCCOC(=O)C(=O)OCCCO[N+](=O)[O-])ccc2c1` gave a melting point of 55 to 58 °C.
As for `CCc1nc2c([nH]1)c(=S)n(CC)c(=O)n2CC(C)CC` (stereo not given), the figure is 115 to 117 °C; as for `CCOC(=O)C(=Cc1cscc1OC)N=[N+]=[N-]`, 88 to 90 °C.
The same measure for `CSc1ccc(C(C)C)c(NC(=O)CN2CCN(CCSc3nc4ccccc4o3)CC2)c1C(C)C`: 148 to 150 °C.
The same measure for `N#CC(C(=O)c1ccc(Cl)cc1)=C1CCCN1C(=O)c1ccc(Cl)cc1`: 218 °C.
`CCOCc1nc2c(N)nc3ccccc3c2n1CC1CCN(C)O1` (stereo not given) registered a melting point of 173 to 174 °C.
As for `O=C1CCCCCC1C(c1ccc(Cl)cc1)[N+](=O)[O-]` (racemic), the figure is 77 to 78 °C.
The same measure for `CCOC(=O)c1cc(-c2ccc(Br)cc2)c(=O)n(Cc2ccc(Cl)cc2Cl)c1`: 152 to 154 °C; for `CCCCc1oc2ccccc2c1C(=O)N(C)Cc1ccc(-c2ccc(OC(Cc3ccccc3)C(=O)O)c(Br)c2)cc1` (stereo not given): 79 to 86 °C.
`CCC/C=C/c1ccc(C#CC(C)(C)O)c(F)c1` showed a melting point of 62 °C.
As for `CCCc1cc2ccccn2c1C(C)=O`, the figure is 71 to 72 °C; as for `CCC(=O)N(C)c1cccc(-c2ccnc3c(C(=O)c4cccs4)cnn23)c1`, 186 to 187 °C; as for `CC(=O)COc1ccn2nc(-c3ccccc3)c(-c3ccc(=O)n(C(C)C)n3)c2c1`, 172 to 174 °C.
The same measure for `O=C(O)c1cc(Br)c(O)cc1O`: 210 to 212 °C.
The same measure for `O=C1CCC(N2C(=O)c3cccc(OCc4ccc(CN5CCN6N=C(C(F)(F)F)NC6C5)cc4)c3C2=O)C(=O)N1` (stereo not given): 128 to 130 °C; for `CNC(=S)C1(c2ccccn2)CCCO1` (stereo not given): 115 °C.
As for `C#CCNC(=NCCSCc1ccccn1)NC#N`, the melting point lay within 124 to 130 °C.
The same measure for `Cn1ccn(-c2ccc(N3CCN(c4ccc(O)cc4)CC3)cc2)c1=O`: 283 °C.
As for `CC(=O)c1c(Cl)cccc1N1CCN(CCCCOc2ccc3c(n2)NC(=O)CC3)CC1`, the figure is 115 °C; as for `O=C1N=C(N2CCOCC2)SC1Cc1cccc(-c2ccc(O)c(C3CCCCC3)c2)c1` (stereo not given), 100 to 108 °C; as for `C=Cn1cccc(O)c1=S`, 84 °C.
The same measure for `COc1cc(Cl)ncn1`: 32 to 34 °C.
As for `Cc1ncccc1NC(=NC#N)NC(NC(=O)CCCc1cccs1)C(C)(C)C` (stereo not given), the melting point was 66 to 68 °C.
As for `O=C1C(CBr)=C(CBr)C(=O)C(CBr)=C1CBr`, the figure is 169 to 172 °C.
The same measure for `Clc1cccc(Nc2ncnc3[nH]nc(N4CCOCC4)c23)c1`: 275 to 276 °C.
As for `N#Cc1ccc2c(c1)OCC21C(=O)N(Cc2ccccn2)c2ccccc21` (stereo not given), the melting point fell in the range of 151 to 153 °C.
`CCOC(=O)c1cc(=O)cc(-c2cccc([N+](=O)[O-])c2)o1`: the melting point lay within 148 to 152 °C.
`CCCCCCCC(=O)N[C@@H](Cc1ccc(O)cc1)C(=O)OC`: the melting point is 76 °C.
The same measure for `COC(=O)COc1ccc(C(=O)CNC(=O)c2ccc(C#N)cc2)cc1`: 200 to 203 °C.
The same measure for `CN1C(=O)CC[C@]2(C)c3ccc(-c4ccc5c(c4)OCCO5)cc3CC[C@@H]12`: 183 to 189 °C.
`NS(=O)(=O)c1ccc(N2C(=O)CN(c3ccccc3)C2=O)cc1` returned a melting point of 291 to 296 °C.
With `COc1cc(OC)cc(-c2oc3ncnc(NC4CCCCCC4)c3c2-c2ccccc2)c1`, the melting point was 151 to 152 °C.
The compound `CCOC(=O)c1cncnc1Nc1ccccc1NC` gave a melting point of 153 to 155 °C.
In the case of `Cc1ccc(OCc2nc(-c3ccccc3)oc2C)cn1`, the melting point lay in the range of 103 to 104 °C.
As for `CS(=O)(=O)c1ccc(-c2cnn(-c3ccc(F)cc3)c(=O)c2C#Cc2ccccc2)cc1`, the figure is 203 to 204 °C.
As for `Cc1ccc(-c2nc(Cl)c3ccccc3n2)cc1`, the figure is 113 to 115 °C; as for `CCC1CCCC(C)C1=NC(C)COC` (stereo not given), 109 to 113 °C.
As for `OC(CCCC(O)c1ccccc1)c1ccccc1` (stereo not given), the figure is 64 to 67 °C; as for `OCC(O)COc1ccc(NNC(c2ccccc2)(c2ccccc2)c2ccccc2)nn1` (racemic), 174 to 176 °C; as for `CNC(=NC(=O)OC)N(C)C`, 80 to 85 °C.
`O=C(Nc1ccc(C(F)(F)F)cc1)N1CC(c2ncc(Cl)s2)C(c2ccc(F)cc2)=N1` (stereo not given) showed a melting point of 188 to 189 °C.
The same measure for `COc1ccc(CC(=O)Nc2cccc3nc(N[C@@H]4CCc5ccccc54)ccc23)cc1`: 175 °C.
